Reference: PMC7619633, “Targeting of multiple tumor-associated antigens by individual T cell receptors during successful cancer immunotherapy” (Cell, 2023)

What was measured:
[1] = tested on: MEL5 and MEL8 TCRs, MM909.24 TIL; assay: Recognition of the 9-mer BST2 peptide (MIP-1β ELISA and tetramer staining); assay type: cell-based, human; settings: Figures S7C–S7F
Experimental: In brief, tetramers were assembled by 5 consecutive 20 min incubations of PE or APC conjugated streptavidin (both from Life Technologies) with pMHC monomer at 1:4 molar ratio, on ice in the dark. Once assembled, 1:100 protease inhibitor (set 1, Merk, London, UK) and PBS was added to a working concentration of 0.1 mg mL^-1 (with regards to the pMHC component). Tetramers were stored at 4°C in the dark and used within 3 days of assembly. To remove aggregates, tetramers were centrifuged at full speed in a microfuge for 1 min immediately before staining samples. Tetramer staining was performed as previously described.[52],[53] Briefly, T cell clones, lines, TILs or Jurkat cells were pre-treated with 50 nM of the protein kinase inhibitor Dasatinib at 37°C for 10-30 min in 100 µL of FACS buffer (PBS with 2% FBS), followed by the addition of 0.5 µg tetramer (with respect to pMHC component) without washing or pre-chilling, and incubated for 30 min on ice and in the dark. Cells were then washed in PBS and stained with VIVID for 5 mins at room temperature. […]
T cells were ‘rested’ overnight in R5 medium (R10 but with 5% FBS) to help reduce spontaneous release of chemokines and cytokines. […] T cell activation towards peptide was determined by MIP-1β release, and for cancer or healthy cell targets it was determined by TNF release. […]

[2] = tested on: MM909.11 TIL; assay: HLA A*03:01-TAG tetramer staining of TIL from patient MM909.11; assay type: binding, human
Experimental: (§1) Staining was performed in 5 mL polystyrene test tubes (1 wash per step) or 96U well plates (3 washes per step), using 0.5-1 x10^5 cells per sample. Dead cells were detected with 2 µL of a 1:40 PBS dilution of LIVE/DEAD® Fixable Violet Dead Stain Kit (VIVID). Samples were acquired on a BD FACSCanto II (BD Biosciences, Franklin Lakes, NJ, USA) or ACEA NovoCyte 3005 with NovoSampler pro (ACEA Biosciences, Agilent, CA, US), then analyzed with FlowJo software (Tree Star Inc., Ashland, Oregon, US). Cells were gated on FSC-A versus SSC-A, single cells (FSC-A versus FSC-H), then viable cells (marker of choice versus VIVID). Cell sorting was performed on a BD FACS Aria III (BD Biosciences) by Central Biotechnology Services at Cardiff University. T cells for TCR sequencing were captured in RLT lysis buffer supplemented with 40 mM DTT or RNAprotect reagent (both from Qiagen). T cells or established cell lines sorted for culture were collected in their respective culture media supplemented with 25 µg mL^-1 of Amphotericin B (Thermo Fisher Scientific) and 10 µg mL^-1 of Ciprofloxacin (Ciproxin, Bayer, Leverkusen, Germany).
(§2) Monomeric pMHC were generated in house as described below and used to assemble tetramers as previously described.[52] […]

[3] = tested on: MM909.15 TIL; assay: HLA A*03:01-TAG tetramer staining of TIL from patient MM909.15; assay type: binding, human
Experimental: as §1, §2

Sequence: LLLGIGILV [BST2_9, previously described 9-mer BST2 peptide]
- Recognition by TCRs of this study [1]: not recognized

Sequence: RLSNRLLLR [TAG, HLA A*03:01-restricted peptide from cancer/testis tumor antigen gene (TAG); peptide and tetramer]
- % of TIL stained with TAG tetramer ([2]; HLA A*03:01-RLSNRLLLR tetramer, MM909.11 TIL (passage-2), Fig S4N): 0.67%
- TAG T cells as share of the anti-melanoma response of the TIL ([2]; MM909.11, from % tetramer+ cells and TIL reactivity toward autologous melanoma): 17.5%
- % of TIL stained with TAG tetramer ([3]; HLA A*03:01-RLSNRLLLR tetramer, MM909.15 TIL (passage-2), Fig S4N): 0.05%
- TAG T cells as share of the anti-melanoma response of the TIL ([3]; MM909.15, from % tetramer+ cells and TIL reactivity toward autologous melanoma): 1.1%
